Data reported in patent US12691101B2, “Compound and method for preventing or treating of respiratory diseases comprising the same as an active ingredient” (YONSEI UNIVERSITY, UNIVERSITY - INDUSTRY FOUNDATION (UIF), priority 2019, dated 2026).
Like-named read-outs stand apart in the source and are kept apart here.

Molecular target: T1, human wild-type (WT)-pendrin (Homo sapiens, UniProt O43511)
T1 construct: expressed in transfected cells
T1 sequence (O43511 1-780): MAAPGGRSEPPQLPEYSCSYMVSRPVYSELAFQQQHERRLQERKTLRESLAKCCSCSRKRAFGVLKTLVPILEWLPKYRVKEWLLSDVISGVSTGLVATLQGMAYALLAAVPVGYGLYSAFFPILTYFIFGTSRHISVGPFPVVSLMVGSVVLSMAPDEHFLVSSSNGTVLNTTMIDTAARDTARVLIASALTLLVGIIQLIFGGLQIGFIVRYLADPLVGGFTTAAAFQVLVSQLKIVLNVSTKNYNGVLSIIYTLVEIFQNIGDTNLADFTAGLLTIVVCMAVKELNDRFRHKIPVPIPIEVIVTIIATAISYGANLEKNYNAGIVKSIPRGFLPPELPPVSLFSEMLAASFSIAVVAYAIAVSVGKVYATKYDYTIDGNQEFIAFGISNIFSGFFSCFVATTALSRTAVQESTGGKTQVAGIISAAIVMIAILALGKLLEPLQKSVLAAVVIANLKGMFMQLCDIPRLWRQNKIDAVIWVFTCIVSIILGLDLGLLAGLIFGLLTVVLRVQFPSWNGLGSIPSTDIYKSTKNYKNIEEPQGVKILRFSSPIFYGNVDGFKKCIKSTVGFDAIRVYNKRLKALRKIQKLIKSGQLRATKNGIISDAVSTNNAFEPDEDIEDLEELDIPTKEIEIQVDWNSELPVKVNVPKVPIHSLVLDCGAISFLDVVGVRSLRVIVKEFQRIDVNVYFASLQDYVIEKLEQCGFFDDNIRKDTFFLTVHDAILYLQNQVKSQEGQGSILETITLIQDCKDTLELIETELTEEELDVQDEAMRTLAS
Experiment: Pendrin-mediated Cl^−/I^− exchange activity, YFP fluorescence in CHO-K1 cells
Format: cell-based
Conditions: read-out: Pendrin inhibitory activity at 30 μM (%)
Procedure: Chinese hamster ovary (CHO)-K1 cells were maintained in a DMEM medium containing 10% fetal bovine serum (FBS), 100 units/ml penicillin and 100 100 μg/ml streptomycin. CHO-K1 cells were stably transfected with pcDNA3.1 encoding halide sensor YFP-H148Q/I152L/F46L and human wild-type (WT)-pendrin. For distribution of primary culture of human nasal cavity epithelium (HNE) cells, passage-2 cells were seeded into transwell-transparent culture inserts with a pore size of 0.45 μm (Costar Co., Cambridge, MA) at a density of 2×10^5 cells/cm^2. The cells were maintained in a 1:1 mixture of Dulbecco's modified Eagle's medium (Lonza, Walkersville, MD) and bronchial epithelial growth medium (Lonza) supplemented with the following growth factors according to the manufacturer's instructions. After immersing the cells for the first 7 days, they were exposed to the apical air interface for the remainder of the culture period. After establishment of the air-liquid interface, the cells were used between 14 and 21 days. At all stages of culture, the cells were maintained at 37° C. under 5% CO2 in an air incubator.
CHO-K1 cells expressing human WT pendrin and YFP-F46L/H148Q/I152L were plated on a 96-well microplate at a density of 2×10^4 cells per well and cultured for 48 hours. Each well of the cell cultured 96-well plate was washed with PBS of 200 μL twice and was filled with HEPES buffer solution of 50 μL, respectively. […] After culturing at 37° C. for 10 minutes, the 96-well plate was positioned on FLUOstar Omega microplate reader (BMG Labtech, Ortenberg, Germany) for fluorescence analysis. By continuously (400 ms per point) recording fluorescence for 1 second (base line), each well was individually analyzed for pendrin-mediated I^− inflow, and then at 1 second, 50 μL of NaI-substituted HEPES buffer solution (NaI replacing NaCl) was added using a liquid injector and the YFP fluorescence was recorded for 5 seconds. The initial iodide inflow rate was determined from the initial slope of fluorescence by nonlinear regression, after injection the iodide (See FIG. 1).
For measurement of Cl^−/I^− exchange activity, YFP fluorescence was measured in pendrin and halide sensor YFP expressing CHO-K1 cells. Each well of the cell cultured 96-well plate was washed with PBS of 200 μL twice, and was filled with HEPES buffer solution (140 mM NaCl, 5 mM KCl, 1 mM MgCl2, 1 mM CaCl2, 10 mM glucose and 10 mM HEPES (pH 7.4)), respectively. […] After culturing at 37° C. for 10 minutes, the 96-well plate was positioned on FLUOstar Omega microplate reader (BMG Labtech, Ortenberg, Germany) for fluorescence analysis.
By continuously (400 ms per point) recording fluorescence for 1 second (base line), each well was individually analyzed for pendrin-mediated I^− inflow, and then at 1 second, 50 μL of NaI-substituted HEPES buffer solution (140 mM NaI, 5 mM KCl, 1 mM MgCl2, 1 mM CaCl2, 10 mM glucose and 10 mM HEPES (pH 7.4)) was added using a liquid injector and the YFP fluorescence was recorded for 5 seconds. The initial iodide inflow rate was determined from the initial slope of fluorescence by nonlinear regression, after injection the iodide.

SMILES	inhibition at 30 µM (CHO-K1, 30 μM)	inhibition at 30 µM (CHO-K1)
C=CCOc1cc(N(CC)CC)ccc1C=C1N=C(c2ccc(NC(=O)c3cncc(Br)c3)cc2)OC1=O [F66, N-(4-(4-(2-(Allyloxy)-4-(diethylamino)benzylidene)-5-oxo-4,5-dihydrooxazol-2-yl)phenyl)-5-bromonicotinamide]	2.3%	
CC(C)(C)c1ccc(C(=O)Oc2ccc(C=C3N=C(c4ccccc4Cl)OC3=O)cc2)cc1 [F67, 4-((2-(2-Chlorophenyl)-5-oxooxazol-4(5H)-ylidene)methyl)phenyl4-(tert-butyl)benzoate]	3.2%	
Cc1nn(-c2ccccc2)c(Cl)c1C=C1N=C(c2cccc(Br)c2)OC1=O [F71, 2-(3-Bromophenyl)-4-((5-chloro-3-methyl-1-phenyl-1H-pyrazol-4-yl)methylene)oxazol-5(4H)-one]	4.4%	
CC(C)(C)c1ccc(C2=NC(=Cc3ccc(-c4cccc(C(F)(F)F)c4)o3)C(=O)O2)cc1 [F73, 2-(4-(tert-butyl)phenyl)-4-((5-(3-(trifluoromethyl)phenyl)furan-2-yl)methylene)oxazol-5(4H)-one]	2.9%	
Cc1ccc(C2=NC(=Cc3cn(S(=O)(=O)N(C)C)c4ccccc34)C(=O)O2)cc1 [F76, N,N-Dimethyl-3-((5-oxo-2-(p-tolyl)oxazol-4(5H)-ylidene)methyl)-1H-indole-1-sulfonamide]	1.9%	
Cc1ccc(/C=C2\N=C(c3ccc(C4=N/C(=C\c5ccc(C)o5)C(=O)O4)cc3)OC2=O)o1 [F79, 2,2′-(1,4-phenylene)bis(4-((5-methylfuran-2-yl)methylene)oxazol-5(4H)-one)]	3.2%	
CC(=O)n1cc(C=C2N=C(c3ccc(C(C)(C)C)cc3)OC2=O)c2ccccc21 [F81, 4-((1-Acetyl-1H-indol-3-yl)methylene)-2-(4-(tert-butyl)phenyl)oxazol-5 (4H)-one]	3.4%	
CC(=O)Nc1ccc(C2=NC(=Cc3ccc(N(C)CCCl)cc3)C(=O)O2)cc1 [F86, N-(4-(4-(4-((2-chloroethyl)(methyl)amino)benzylidene)-5-oxo-4,5-dihydrooxazol-2-yl)phenyl)acetamide]		3.3%
O=C1OC(c2ccc(Cl)cc2)=NC1=Cc1cccs1 [F88, 2-(4-Chlorophenyl)-4-(thiophen-2-ylmethylene)oxazol-5(4H)-one]	2.4%	
O=C1OC(c2cccs2)=NC1=Cc1cccs1 [F89, 2-(Thiophen-2-yl)-4-(thiophen-2-ylmethylene)oxazol-5(4H)-one]	2.8%	
O=C1OC(c2ccc(Cl)c([N+](=O)[O-])c2)=NC1=Cc1cccs1 [F91, 2-(4-Chloro-3-nitrophenyl)-4-(thiophen-2-ylmethylene)oxazol-5(4H)-one]	3.9%	
O=C1OC(c2ccccc2Cl)=NC1=Cc1cccs1 [F92, 2-(2-Chlorophenyl)-4-(thiophen-2-ylmethylene)oxazol-5(4H)-one]	2.2%	
O=C1OC(c2ccc([N+](=O)[O-])cc2Cl)=NC1=Cc1cccs1 [F93, 2-(2-Chloro-4-nitrophenyl)-4-(thiophen-2-ylmethylene)oxazol-5(4H)-one]	2.5%	
COc1cc(C2=NC(=Cc3cccs3)C(=O)O2)cc(OC)c1OC [F94, 4-(Thiophen-2-ylmethylene)-2-(3,4,5-trimethoxyphenyl)oxazol-5(4H)-one]	1.9%	

Continued, in another order:

inhibition at 30 µM (CHO-K1, 30 μM)	SMILES	inhibition at 30 µM (CHO-K1)
4.3%	CCC(/C=C1\Sc2ccc(OC)cc2N1CC)=C1N=C(c2ccccc2)OC1=O [F68, 4-((Z)-1-(3-ethyl-5-methoxybenzo[d]thiazol-2(3H)-ylidene)butan-2-ylidene)-2-phenyloxazol-5(4H)-one]	
3.8%	CCOc1cc(C=C2N=C(c3ccc(NC(C)=O)cc3)OC2=O)ccc1OC(=O)c1cccs1 [F69, 4-((2-(4-Acetamidophenyl)-5-oxooxazol-4(5H)-ylidene)methyl)-2-ethoxyphenylthiophene-2-carboxylate]	
3.1%	CCOc1ccc2nc(Sc3ccccc3)c(C=C3N=C(c4ccccc4)OC3=O)cc2c1 [F70, 4-((6-Ethoxy-2-(phenylthio)quinolin-3-yl)methylene)-2-phenyloxazol-5(4H)-one]	
2.8%	CC(=O)n1cc(C=C2N=C(c3ccc(Br)cc3)OC2=O)c2ccccc21 [F72, 4-((1-Acetyl-1H-indol-3-yl)methylene)-2-(4-bromophenyl)oxazol-5(4H)-one]	
2.4%	COc1ccc2cc(C=C3N=C(c4ccccc4)OC3=O)c(=O)[nH]c2c1 [F74, 4-((7-Methoxy-2-oxo-1,2-dihydroquinolin-3-yl)methylene)-2-phenyloxazol-5(4H)-one]	
2.3%	COc1ccc(C2=NC(=C3C=C(c4cccs4)Oc4ccccc43)C(=O)O2)cc1 [F75, 2-(4-Methoxyphenyl)-4-(2-(thiophen-2-yl)-4H-chromen-4-ylidene)oxazol-5 (4H)-one]	
2.6%	CC(=O)Nc1ccc(S(=O)(=O)Oc2ccccc2C=C2N=C(c3ccc(Cl)cc3)OC2=O)cc1 [F77, 2-((2-(4-Chlorophenyl)-5-oxooxazol-4(5H)-ylidene)methyl)phenyl4-acetamido benzenesulfonate]	
1.7%	O=C1OC(c2ccccc2)=NC1=Cc1ccc(OC(=O)c2ccco2)cc1 [F78, 4-((5-oxo-2-phenyloxazol-4(5H)-ylidene)methyl)phenylfuran-2-carboxylate]	
1.9%	CC(C)(C)c1ccc(C2=NC(=Cc3ccccc3OS(=O)(=O)c3ccccc3)C(=O)O2)cc1 [F80, 2-((2-(4-(tert-butyl)phenyl)-5-oxooxazol-4(5H)-ylidene)methyl)phenylbenznesulfonate]	
2.7%	CC(=O)n1cc(C=C2N=C(c3ccc(C(C)(C)C)cc3)OC2=O)c(-c2ccccc2)n1 [F82, 4-((1-Acetyl-3-phenyl-1H-pyrazol-4-yl)methylene)-2-(4-(tert-butyl)phenyl)oxazol-5 (4H)-one]	
2.4%	Cc1ccc(C2=NC(=Cc3cn(-c4ccccc4)nc3-c3ccccc3)C(=O)O2)cc1 [F83, 4-((1,3-Diphenyl-1H-pyrazol-4-yl)methylene)-2-(p-tolyl)oxazol-5(4H)-one]	
3.4%	COc1ccc2[nH]c(=O)c(C=C3N=C(c4ccccc4)OC3=O)cc2c1 [F84, 4-((6-Methoxy-2-oxo-1,2-dihydroquinolin-3-yl)methylene)-2-phenyloxazol-5(4H)-one]	
2.9%	O=C1OC(c2ccccc2)=NC1=C1C=C(c2ccccc2)SC(c2ccccc2)=C1 [F85, 4-(2,6-Diphenyl-4H-thiopyran-4-ylidene)-2-phenyloxazol-5(4H)-one]	
3.6%	COc1ccc(C2=NC(=Cc3cccs3)C(=O)O2)cc1 [F87, 2-(4-Methoxyphenyl)-4-(thiophen-2-ylmethylene)oxazol-5 (4H)-one]	
3.3%	CC(=O)Oc1ccc(C2=NC(=Cc3cccs3)C(=O)O2)cc1 [F90, 4-(5-Oxo-4-(thiophen-2-ylmethylene)-4,5-dihydrooxazol-2-yl)phenylacetate]	
